# Like-named read-outs stand apart in the source and are kept apart here. No end group written: not given here.
# How the values were obtained:
# BKS.Cg WT mice = test: Bioavailability: IPGTT, oral PIN/PLA GLP-1 vs intraperitoneal soluble peptide, serum glucose AUC; type: in vivo
# Method: All mice were then injected intraperitoneally with glucose (3 mg/ml in 0.2 ml saline). Blood was collected at time 0 (pre-glucose) and at indicated times post-glucose. Serum glucose levels were determined as described above.
# [1] = oral, relative to intravenous administration of GLP-1; cited from earlier work
# GLP-1 receptor [2] = target: T1, GLP-1 receptor (Homo sapiens, UniProt P43220); details: cited from earlier work
# GLP-1 receptor [3] = target: T1, GLP-1 receptor; details: cited from earlier work; remark: listed apart in the source
# type 2 diabetic patients = details: cited from earlier work
# T1 sequence (P43220 24-463, species assumed): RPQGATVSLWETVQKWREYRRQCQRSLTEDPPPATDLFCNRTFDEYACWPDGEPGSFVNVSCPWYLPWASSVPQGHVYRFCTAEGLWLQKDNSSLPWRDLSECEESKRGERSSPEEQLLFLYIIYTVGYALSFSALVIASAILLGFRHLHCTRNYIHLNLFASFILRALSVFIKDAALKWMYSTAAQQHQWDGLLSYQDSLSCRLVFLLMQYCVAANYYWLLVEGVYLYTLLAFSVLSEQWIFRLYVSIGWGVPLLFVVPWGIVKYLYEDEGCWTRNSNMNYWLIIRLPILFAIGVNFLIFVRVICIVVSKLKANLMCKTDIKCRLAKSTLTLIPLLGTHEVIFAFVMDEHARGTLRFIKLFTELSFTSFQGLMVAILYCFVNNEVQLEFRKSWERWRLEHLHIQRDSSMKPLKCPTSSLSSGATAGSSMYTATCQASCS
substance,measurement,setting,value
GLP-1 (7-36 amide) [Free],AUC 30 ug (serum glucose area under the curve),"BKS.Cg WT mice; 30 ug GLP-1/mouse, Free = intraperitoneal soluble peptide, Encap = oral PIN/PLA particles",7515
same,AUC 90 ug (serum glucose area under the curve),"BKS.Cg WT mice; 90 ug GLP-1/mouse, Free = intraperitoneal soluble peptide, Encap = oral PIN/PLA particles",7425
same,AUC 250 ug (serum glucose area under the curve),"BKS.Cg WT mice; 250 ug GLP-1/mouse, Free = intraperitoneal soluble peptide, Encap = oral PIN/PLA particles",6262
same,effect on blood glucose in IPGTT (in words),"BKS.Cg WT mice; 250 μg GLP-1, oral particles vs intraperitoneal soluble peptide",superior
same,mean absolute bioavailability,[1],4%
"GLP-1(9-36)-NH2 (EGTFTSDVSSYLEGQAAKEFIAWLVKGR-NH2; UniProt P01275 100-127, looked up, fragment)",lower binding affinity compared to the intact peptide,GLP-1 receptor [2],100 fold
same,decrease in agonistic activity,GLP-1 receptor [3],> 10000 fold
rGLP-1: rGLP-1 given by continuous infusion in a cited study,decrease in fasting serum glucose,type 2 diabetic patients; 1.25 pmol/kg/min,22.7 mg/dL
same,decrease in fasting serum glucose,type 2 diabetic patients; 2.5 pmol/kg/min,37.0 mg/dL
same,decrease in fasting serum glucose,type 2 diabetic patients; 5.0 pmol/kg/min,53.9 mg/dL
same,decrease in fasting serum glucose,type 2 diabetic patients; 8.5 pmol/kg/min,76.2 mg/dL

# Source: patent US20210162013A1, “COMPOSITIONS AND METHODS FOR IMPROVING THE BIOAVAILABILITY OF GLP1 AND ANALOGUES THEREOF” (Brown University, priority 2018, published 2021)
